Target: human PAD4 (hPAD4) (Homo sapiens, UniProt Q9UM07)
Experiment: RFMS human PAD4 functional assay (rapid-fire mass spectrum)
Type: biochemical
Conditions: 5 nM hPAD4 enzyme, 250 μM BAEE, 50 μM Calcium; 30 min preincubation, 90 min reaction at 37° C.
How it was run: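 PAD4 (10 nM) preincubated 30 min with compound (top final 50 μM), then BAEE substrate added in pH 7.5 HEPES buffer with DTT, 50 μM calcium, TPEN; 90 min at 37° C. After TCA quench, citrulline derivatized with phenyl glyoxal (4 mM final, 30 min, 37° C) and quantified by RapidFire MS against internal standard.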

Chain of human PAD4 (hPAD4) (Q9UM07 whole entry): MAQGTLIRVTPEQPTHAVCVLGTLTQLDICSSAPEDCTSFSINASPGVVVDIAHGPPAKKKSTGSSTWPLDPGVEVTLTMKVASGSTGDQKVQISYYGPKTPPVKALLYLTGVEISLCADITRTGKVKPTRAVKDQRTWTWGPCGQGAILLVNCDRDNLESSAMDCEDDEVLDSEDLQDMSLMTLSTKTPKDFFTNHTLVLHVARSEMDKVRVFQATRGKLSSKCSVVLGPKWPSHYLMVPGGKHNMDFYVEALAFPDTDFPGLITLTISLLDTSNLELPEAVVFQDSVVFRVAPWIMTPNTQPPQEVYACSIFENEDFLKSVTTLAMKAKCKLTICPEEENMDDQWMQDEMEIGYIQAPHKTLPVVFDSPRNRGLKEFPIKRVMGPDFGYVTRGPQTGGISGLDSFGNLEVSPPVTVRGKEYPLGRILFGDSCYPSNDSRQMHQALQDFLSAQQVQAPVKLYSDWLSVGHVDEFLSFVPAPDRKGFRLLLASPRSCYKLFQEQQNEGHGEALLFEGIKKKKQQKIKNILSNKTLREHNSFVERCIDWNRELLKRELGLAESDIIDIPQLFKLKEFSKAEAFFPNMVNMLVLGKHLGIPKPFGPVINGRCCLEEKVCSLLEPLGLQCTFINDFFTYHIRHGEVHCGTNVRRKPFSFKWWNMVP

SMILES	IC50
COc1cc(C(=O)N2C[C@H]3CC[C@@H]2[C@@H]3N)cc2nc(-c3cc4ccccc4n3CC3CC3)n(CC3CN(C(=O)c4ccc(C(=O)O)cc4)C3)c12 [Example 151, 4-[3-({5-[(1R,4R,7R)-7-amino-2-azabicyclo[2.2.1]heptane-2-carbonyl]-2-[1-(cyclopropylmethyl)-1H-indol-2-yl]-7-methoxy-1H-1,3-benzodiazol-1-yl}methyl)azetidine-1-carbonyl]benzoic acid]	0.02 µM
COc1cc(C(=O)N2C[C@H]3CC[C@@H]2[C@@H]3N)cc2nc(-c3cc4ccccc4n3CC3CC3)n(CCCN3CCCC3=O)c12 [Example 254, 1-(3-{5-[(1R,4R,7R)-7-amino-2-azabicyclo[2.2.1]heptane-2-carbonyl]-2-[1-(cyclopropylmethyl)-1H-indol-2-yl]-7-methoxy-1H-1,3-benzodiazol-1-yl}propyl)pyrrolidin-2-one]	0.031 µM
COc1ccc2cc(-c3nc4cc(C(=O)N5C[C@H]6CC[C@@H]5[C@@H]6N)cc(OC)c4n3CC3CN(c4cccnc4C#N)C3)n(CC3CC3)c2n1 [Example 35, 3-[3-({5-[(1R,4R,7R)-7-amino-2-azabicyclo[2.2.1]heptane-2-carbonyl]-2-[1-(cyclopropylmethyl)-6-methoxy-1H-pyrrolo[2,3-b]pyridin-2-yl]-7-methoxy-1H-1,3-benzodiazol-1-yl}methyl)azetidin-1-yl]pyridine-2-carbonitrile]	0.09 µM
CCC(=O)N1CC(Cn2c(-c3cc4cccnc4n3CC3CC3)nc3cc(C(=O)N4C[C@H]5CC[C@@H]4[C@@H]5N)cc(OC)c32)C1 [Example 134, 1-[3-({5-[(1R,4R,7R)-7-amino-2-azabicyclo[2.2.1]heptane-2-carbonyl]-2-[1-(cyclopropylmethyl)-1H-pyrrolo[2,3-b]pyridin-2-yl]-7-methoxy-1H-1,3-benzodiazol-1-yl}methyl)azetidin-1-yl]propan-1-one]	0.193 µM
CCCC(=O)N1CC(Cn2c(-c3cc4cccnc4n3CC3CC3)nc3cc(C(=O)N4C[C@H]5CC[C@@H]4[C@@H]5N)cc(OC)c32)C1 [Example 118, 1-[3-({5-[(1R,4R,7R)-7-amino-2-azabicyclo[2.2.1]heptane-2-carbonyl]-2-[1-(cyclopropylmethyl)-1H-pyrrolo[2,3-b]pyridin-2-yl]-7-methoxy-1H-1,3-benzodiazol-1-yl}methyl)azetidin-1-yl]butan-1-one]	0.068 µM
COc1cc(C(=O)N2C[C@H]3CC[C@@H]2[C@@H]3N)cc2nc(-c3cc4cccnc4n3CC3CC3)n(C3CCN(C(=O)c4cnc(C#N)nc4)CC3)c12 [Example 229, 5-(4-{5-[(1R,4R,7R)-7-amino-2-azabicyclo[2.2.1]heptane-2-carbonyl]-2-[1-(cyclopropylmethyl)-1H-pyrrolo[2,3-b]pyridin-2-yl]-7-methoxy-1H-1,3-benzodiazol-1-yl}piperidine-1-carbonyl)pyrimidine-2-carbonitrile]	0.219 µM
CC#CC(=O)N1CC(Cn2c(-c3cc4cccnc4n3CC3CC3)nc3cc(C(=O)N4C[C@H]5CC[C@@H]4[C@@H]5N)cc(OC)c32)C1 [Example 104, 1-[3-({5-[(1R,4R,7R)-7-amino-2-azabicyclo[2.2.1]heptane-2-carbonyl]-2-[1-(cyclopropylmethyl)-1H-pyrrolo[2,3-b]pyridin-2-yl]-7-methoxy-1H-1,3-benzodiazol-1-yl}methyl)azetidin-1-yl]but-2-yn-1-one]	0.027 µM
CCC#CC(=O)N1CC(Cn2c(-c3cc4cccnc4n3CC3CC3)nc3cc(C(=O)N4C[C@H]5CC[C@@H]4[C@@H]5N)cc(OC)c32)C1 [Example 108, 1-[3-({5-[(1R,4R,7R)-7-amino-2-azabicyclo[2.2.1]heptane-2-carbonyl]-2-[1-(cyclopropylmethyl)-1H-pyrrolo[2,3-b]pyridin-2-yl]-7-methoxy-1H-1,3-benzodiazol-1-yl}methyl)azetidin-1-yl]pent-2-yn-1-one]	0.04 µM

Now from value to molecule:

IC50	SMILES
0.072 µM	COc1cc(C(=O)N2C[C@H](N)C[C@@H](F)C2)cc2nc(-c3cc4cccnc4n3CC3CC3)n(Cc3cnn(-c4cccc(O)n4)c3)c12 [Example 407, 6-[4-({5-[(3R,5R)-3-amino-5-fluoropipendine-1-carbonyl]-2-[1-(cyelopropylmethyl)-1H-pyrrolo[2,3-b]pyridin-2-yl]-7-methoxy-1H-1,3-benzodiazol-1-yl}methyl)-1H-pyrazol-1-yl]pyridin-2-ol]
0.091 µM	N#Cc1ccc(C(=O)N2CC(Cn3c(-c4cc5cccnc5n4CC4CC4)nc4cc(C(=O)N5CC6CCC5[C@@H]6N)ccc43)C2)cc1 (stereo partly drawn) [Example 467, 4-[3-({5-[(7R)-7-amino-2-azabicyclo[2.2.1]heptane-2-carbonyl]-2-[1-(cyclopropylmethyl)-1H-pyrrolo[2,3-b]pyridin-2-yl]-1H-1,3-benzodiazol-1-yl}methyl)azetidine-1-carbonyl]benzonitrile]
0.498 µM	COc1cc(C(=O)N2C[C@H]3CC[C@@H]2[C@@H]3N)cc2nc(-c3cc4cccnc4n3CC3CC3)n(CC3CN(S(C)(=O)=O)C3)c12 [Example 338, (1R,4R,7R)-2-{2-[1-(cyclopropylmethyl)-1H-pyrrolo[2,3-b]pyridin-2-yl]-1-[(1-methanesulfonylazetidin-3-yl)methyl]-7-methoxy-1H-1,3-benzodiazole-5-carbonyl}-2-azabicyclo[2.2.1]heptan-7-amine]
0.256 µM	COc1cc(C(=O)N2C[C@H](N)C[C@@H](F)C2)cc2nc(-c3cc4cccnc4n3CC3CC3)n(Cc3cn(C)nc3C)c12 [Example 507, (3R,5R)-1-{2-[1-(cyclopropylmethyl)-1H-pyrrolo[2,3-b]pyridin-2-yl]-1-[(1,3-dimethyl-1H-pyrazol-4-yl)methyl]-7-methoxy-1H-1,3-benzodiazole-5-carbonyl}-5-fluoropiperidin-3-amine]
0.18 µM	COc1cc(C(=O)N2CC3CCC2[C@@H]3N)cc2nc(-c3cc4cccnc4n3CC3CC3)n(CC3CC(C(N)=O)C3)c12 (stereo partly drawn) [Example 475, 3-({5-[(7R)-7-amino-2-azabicyclo[2.2.1]heptane-2-carbonyl]-2-[1-(cyclopropylmethyl)-1H-pyrrolo[2,3-b]pyridin-2-yl]-7-methoxy-1H-1,3-benzodiazol-1-yl}methyl)cyclobutane-1-carboxamide]
0.025 µM	COc1cc(C(=O)N2CC3CCC2[C@@H]3N)cc2nc(-c3cc4ccccc4n3CC3CC3)n(Cc3cnn(-c4ccncc4)c3)c12 (stereo partly shown) [Example 362]
0.149 µM	COc1cc(C(=O)N2CC3CCC2[C@@H]3N)cc2nc(-c3cc4ccccc4n3CC3CC3)n(Cc3cn(C)nn3)c12 (stereo partly drawn) [Example 503, (7R)-2-{2-[1-(cyclopropylmethyl)-1H-indol-2-yl]-7-methoxy-1-[(1-methyl-1H-1,2,3-triazol-4-yl)methyl]-1H-1,3-benzodiazole-5-carbonyl}-2-azabicyclo[2.2.1]heptan-7-amine]
0.024 µM	COc1cc(C(=O)N2CC3CCC2[C@@H]3N)cc2nc(-c3cc4cccnc4n3CC3CC3)n(CC3CN(C(=O)c4cc(F)cc(F)c4)C3)c12 (stereo partly drawn) [Example 427, (7R)-2-{2-[1-(cyclopropylmethyl)-1H-pyrrolo[2,3-b]pyridin-2-yl]-1-{[1-(3,5-difluorobenzoyl)azetidin-3-yl]methyl}-7-methoxy-1H-1,3-benzodiazole-5-carbonyl}-2-azabicyclo[2.2.1]heptan-7-amine]

From patent US12692254B2, “Benzimidazole inhibitors of PAD enzymes” (BRISTOL-MYERS SQUIBB COMPANY, priority 2018, dated 2026)
